# ChEMBL document CHEMBL5365438, “2-Substituted 1,5-benzothiazepine-based HDAC inhibitors exert anticancer activities on human solid and acute myeloid leukemia cell lines” (Bioorg Med Chem, 2023)
# Calls of active or inactive are those of the source. The rule behind the calls is not given here.
# Tests used:
# HCT-116 [1] = test: Cytotoxicity against human HCT-116 cells assessed as reduction in cell death at 1 uM incubated for 24 hrs by PI staining based FACS analysis; format: functional
# Histone deacetylase = format: subcellular, Homo sapiens, Nucleus; conditions: hela
# Description: Inhibition of HDAC in human HeLa cell nuclear extract using Kac fluorogenic peptide as substrate containing residues 379-382 of p53 by fluorescence assay
# U-937 [2] = test: Cytotoxicity against human U-937 cells assessed as cell death at 5 uM incubated for 24 hrs by PI staining based FACS analysis relative to control; format: functional
# HCT-116 [3] = test: Cytotoxicity against human HCT-116 cells assessed as cell death at 5 uM incubated for 24 hrs by PI staining based FACS analysis relative to control; format: functional
# U-937 [4] = test: Induction of cell cycle arrest in human U-937 assessed as reduced accumulation of cells in S phase at 1 uM incubated for 24 hrs by FACS analysis; format: functional, cell-based
# U-937 [5] = test: Induction of cell cycle arrest in human U-937 assessed as increase accumulation of cells in G2/M phase at 1 to 5 uM incubated for 24 hrs by FACS analysis; format: functional, cell-based; conditions: dose 1-5 µM
# U-937 [6] = test: Induction of cell cycle arrest in human U-937 assessed as decrease accumulation of cells in G1 phase at 5 uM incubated for 24 hrs by FACS analysis; format: functional, cell-based
# HCT-116 [7] = test: Induction of cell cycle arrest in human HCT-116 assessed as accumulation of cells in G2/M phase at 1 to 5 uM incubated for 24 hrs by FACS analysis relative to SAHA; format: functional; conditions: dose 1-5 µM
# [8] = target: T1, Histone deacetylase (Homo sapiens) (UniProt Q13547+O15379+Q9UBN7+Q92769+Q9UQL6+Q8WUI4+Q9BY41+Q96DB2+P56524+Q9UKV0+Q969S8); test: Inhibition of HDAC in human U-937 cells assessed as upregulation of histone H3 acetylation at lysine 14 residue at 1 uM incubated for 24 hrs by immunoblotting analysis; format: cell-based
# [9] = target: T1, Histone deacetylase (Homo sapiens); test: Inhibition of HDAC in human U-937 cells assessed as upregulation of histone H3 acetylation at lysine 14 residue at 5 uM incubated for 24 hrs by immunoblotting analysis; format: cell-based
# [10] = target: T1, Histone deacetylase (Homo sapiens); test: Inhibition of HDAC in human HCT-116 cells assessed as upregulation of acetyl alpha-tubulin level at 1 to 5 uM incubated for 24 hrs by immunoblotting analysis; format: cell-based; conditions: dose 1-5 µM
# HCT-116 [11] = test: Induction of apoptosis in human HCT-116 cells assessed as increased p21 protein expression level at 1 to 5 uM incubated for 24 hrs by immunoblotting analysis; format: functional, cell-based; conditions: dose 1-5 µM
# U-937 [12] = test: Induction of apoptosis in human U-937 cells assessed as increased p21 protein expression level at 1 to 5 uM incubated for 24 hrs by immunoblotting analysis; format: functional, cell-based; conditions: dose 1-5 µM
# [13] = target: Histone deacetylase 4 (Homo sapiens) (UniProt P56524); test: Inhibition of HDAC4 (unknown origin) at 10 uM using fluorogenic peptide as substrate pre-incubated for 15 mins followed by substrate addition incubated for 30 mins by fluorescence assay; conditions: time 45.0 min
# Histone deacetylase 4 (Homo sapiens), sequence (P56524 whole entry): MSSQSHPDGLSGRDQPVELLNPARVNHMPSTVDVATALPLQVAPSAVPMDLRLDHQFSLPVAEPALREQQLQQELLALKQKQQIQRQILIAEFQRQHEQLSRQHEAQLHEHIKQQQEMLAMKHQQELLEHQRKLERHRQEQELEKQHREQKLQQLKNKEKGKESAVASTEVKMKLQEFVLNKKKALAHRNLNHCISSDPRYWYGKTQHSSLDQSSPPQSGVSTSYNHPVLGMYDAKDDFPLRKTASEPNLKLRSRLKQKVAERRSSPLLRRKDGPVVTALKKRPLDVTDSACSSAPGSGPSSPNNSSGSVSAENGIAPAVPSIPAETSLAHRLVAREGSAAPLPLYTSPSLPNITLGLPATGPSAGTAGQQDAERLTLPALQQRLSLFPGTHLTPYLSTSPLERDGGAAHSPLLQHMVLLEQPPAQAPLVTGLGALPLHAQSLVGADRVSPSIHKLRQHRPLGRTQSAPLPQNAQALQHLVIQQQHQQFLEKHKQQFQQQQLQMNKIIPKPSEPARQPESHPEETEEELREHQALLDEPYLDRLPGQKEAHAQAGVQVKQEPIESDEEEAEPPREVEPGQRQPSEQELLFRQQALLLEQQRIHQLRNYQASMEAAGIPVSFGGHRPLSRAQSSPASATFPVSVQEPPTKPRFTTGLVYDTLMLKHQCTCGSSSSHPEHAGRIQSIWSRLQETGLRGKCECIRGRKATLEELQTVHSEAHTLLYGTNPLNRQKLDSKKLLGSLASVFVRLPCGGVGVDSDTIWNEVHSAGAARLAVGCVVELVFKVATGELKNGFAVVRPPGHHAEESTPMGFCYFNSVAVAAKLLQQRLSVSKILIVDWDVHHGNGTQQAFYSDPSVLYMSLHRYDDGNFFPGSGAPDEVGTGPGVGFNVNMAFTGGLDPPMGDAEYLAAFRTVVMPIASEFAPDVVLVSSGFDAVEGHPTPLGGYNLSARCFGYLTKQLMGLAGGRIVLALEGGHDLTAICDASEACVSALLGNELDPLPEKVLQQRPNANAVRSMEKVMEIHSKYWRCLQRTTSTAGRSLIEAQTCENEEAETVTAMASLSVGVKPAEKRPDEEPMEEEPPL
# Histone deacetylase 1 [14] = target: T2, Histone deacetylase 1 (Homo sapiens, UniProt Q13547); test: Inhibition of HDAC1 (unknown origin) at 10 uM using fluorogenic peptide as substrate pre-incubated for 15 mins followed by substrate addition incubated for 30 mins by fluorescence assay relative to control; conditions: time 45.0 min
# T2 sequence (Q13547 whole entry): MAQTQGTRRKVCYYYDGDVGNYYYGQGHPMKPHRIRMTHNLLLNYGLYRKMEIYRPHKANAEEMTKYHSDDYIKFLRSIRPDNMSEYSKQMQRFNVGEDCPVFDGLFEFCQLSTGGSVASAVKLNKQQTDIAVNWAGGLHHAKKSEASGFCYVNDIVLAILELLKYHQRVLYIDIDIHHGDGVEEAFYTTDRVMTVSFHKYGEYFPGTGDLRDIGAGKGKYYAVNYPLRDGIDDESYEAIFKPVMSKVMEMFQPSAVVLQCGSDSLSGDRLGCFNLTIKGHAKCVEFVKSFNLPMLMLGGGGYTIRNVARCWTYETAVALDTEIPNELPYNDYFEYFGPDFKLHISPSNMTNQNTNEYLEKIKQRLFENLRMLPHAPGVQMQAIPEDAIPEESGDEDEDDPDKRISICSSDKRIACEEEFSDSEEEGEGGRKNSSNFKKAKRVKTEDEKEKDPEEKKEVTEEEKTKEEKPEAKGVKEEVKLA
# [15] = target: T3, Protein deacetylase HDAC6 (Homo sapiens) (UniProt Q9UBN7); test: Inhibition of HDAC6 (unknown origin) at 10 uM using fluorogenic peptide as substrate pre-incubated for 15 mins followed by substrate addition incubated for 30 mins by fluorescence assay; conditions: time 45.0 min
# T3 sequence (whole entry): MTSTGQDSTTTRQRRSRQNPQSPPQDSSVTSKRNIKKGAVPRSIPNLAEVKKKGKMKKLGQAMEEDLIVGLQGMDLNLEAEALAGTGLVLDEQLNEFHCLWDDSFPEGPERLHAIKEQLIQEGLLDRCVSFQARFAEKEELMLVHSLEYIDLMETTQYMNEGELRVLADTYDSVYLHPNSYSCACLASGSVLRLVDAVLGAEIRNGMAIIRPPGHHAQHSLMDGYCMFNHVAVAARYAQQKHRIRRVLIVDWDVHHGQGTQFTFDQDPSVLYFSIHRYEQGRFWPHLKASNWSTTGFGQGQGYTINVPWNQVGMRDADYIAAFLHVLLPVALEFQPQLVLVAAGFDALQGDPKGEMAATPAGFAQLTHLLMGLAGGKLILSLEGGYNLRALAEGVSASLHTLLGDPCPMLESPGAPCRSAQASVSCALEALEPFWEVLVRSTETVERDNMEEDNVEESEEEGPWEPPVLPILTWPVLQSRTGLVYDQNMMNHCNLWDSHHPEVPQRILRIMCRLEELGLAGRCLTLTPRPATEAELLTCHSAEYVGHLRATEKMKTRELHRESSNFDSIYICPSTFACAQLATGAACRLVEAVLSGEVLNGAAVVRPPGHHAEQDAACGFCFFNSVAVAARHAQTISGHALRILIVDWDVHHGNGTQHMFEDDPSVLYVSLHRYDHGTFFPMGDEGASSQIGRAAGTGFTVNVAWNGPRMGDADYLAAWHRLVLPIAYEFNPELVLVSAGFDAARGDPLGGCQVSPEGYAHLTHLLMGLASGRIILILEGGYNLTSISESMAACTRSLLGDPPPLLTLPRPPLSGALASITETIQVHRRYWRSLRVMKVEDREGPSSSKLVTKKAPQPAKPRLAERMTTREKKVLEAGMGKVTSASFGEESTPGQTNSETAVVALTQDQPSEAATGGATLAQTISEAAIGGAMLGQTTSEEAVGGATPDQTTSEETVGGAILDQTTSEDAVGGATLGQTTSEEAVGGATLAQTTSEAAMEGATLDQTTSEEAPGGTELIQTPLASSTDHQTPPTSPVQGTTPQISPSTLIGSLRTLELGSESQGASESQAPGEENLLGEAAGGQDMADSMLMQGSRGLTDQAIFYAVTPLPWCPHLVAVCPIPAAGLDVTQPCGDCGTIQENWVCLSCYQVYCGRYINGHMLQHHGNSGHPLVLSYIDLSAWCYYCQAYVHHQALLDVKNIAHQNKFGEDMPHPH
# [16] = target: T4, Protein deacetylase HDAC6 (Homo sapiens, UniProt Q9UBN7); test: Inhibition of HDAC6 (unknown origin) using fluorogenic peptide as the substrate containing residues 379-382 of p53at 10 uM pre-incubated for 15 mins followed by substrate addition incubated for 30 mins by multimode plate reader
# T4 sequence (Q9UBN7 whole entry): T3 sequence (whole entry)
# Histone deacetylase 1 [17] = target: T2, Histone deacetylase 1; test: Inhibition of HDAC1 (unknown origin) using fluorogenic peptide as the substrate containing residues 379-382 of p53 pre-incubated for 15 mins followed by substrate addition incubated for 30 mins by multimode plate reader
# U-937 [18] = test: Cytotoxicity against human U-937 cells assessed as cell death at 1 to 5 uM incubated for 24 hrs by PI staining based FACS analysis relative to control; format: functional; conditions: dose 1-5 µM
# [19] = target: T1, Histone deacetylase (Homo sapiens); test: Inhibition of HDAC in human HCT-116 cells assessed as upregulation of histone H3 acetylation at lysine 14 residue at 1 uM incubated for 24 hrs by immunoblotting analysis; format: cell-based
# [20] = target: T1, Histone deacetylase (Homo sapiens); test: Inhibition of HDAC in human U-937 cells assessed as upregulation of acetyl alpha-tubulin level at 5 uM incubated for 24 hrs by immunoblotting analysis; format: cell-based
# U-937 [21] = test: Cytotoxicity against human U-937 cells assessed as cell viability incubated for 24 hrs by MTT assay; format: functional, cell-based; conditions: U-937, 24 h
# HCT-116 [22] = test: Cytotoxicity against human HCT-116 cells assessed as cell viability incubated for 24 hrs by MTT assay; format: functional, cell-based; conditions: HCT-116, 24 h
# U-937 [23] = test: Induction of cell cycle arrest in human U-937 assessed as decrease accumulation of cells in G1 phase at 1 to 5 uM incubated for 24 hrs by FACS analysis; format: functional, cell-based; conditions: dose 1-5 µM
# HCT-116 [24] = test: Induction of cell cycle arrest in human HCT-116 assessed as decrease accumulation of cells in G1 phase at 1 to 5 uM incubated for 24 hrs by FACS analysis; format: functional, cell-based; conditions: dose 1-5 µM
# U-937 [25] = test: Induction of cell cycle arrest in human U-937 assessed as decrease accumulation of cells in S phase at 1 to 5 uM incubated for 24 hrs by FACS analysis; format: functional, cell-based; conditions: dose 1-5 µM
# HCT-116 [26] = test: Induction of cell cycle arrest in human HCT-116 assessed as decrease accumulation of cells in S phase at 1 to 5 uM incubated for 24 hrs by FACS analysis; format: functional, cell-based; conditions: dose 1-5 µM
# [27] = target: Histone deacetylase 2 (Homo sapiens) (UniProt Q92769); test: Inhibition of HDAC2 (unknown origin) at 10 uM using fluorogenic peptide as substrate pre-incubated for 15 mins followed by substrate addition incubated for 30 mins by fluorescence assay; conditions: time 45.0 min
# Histone deacetylase 2 (Homo sapiens), sequence (Q92769 whole entry): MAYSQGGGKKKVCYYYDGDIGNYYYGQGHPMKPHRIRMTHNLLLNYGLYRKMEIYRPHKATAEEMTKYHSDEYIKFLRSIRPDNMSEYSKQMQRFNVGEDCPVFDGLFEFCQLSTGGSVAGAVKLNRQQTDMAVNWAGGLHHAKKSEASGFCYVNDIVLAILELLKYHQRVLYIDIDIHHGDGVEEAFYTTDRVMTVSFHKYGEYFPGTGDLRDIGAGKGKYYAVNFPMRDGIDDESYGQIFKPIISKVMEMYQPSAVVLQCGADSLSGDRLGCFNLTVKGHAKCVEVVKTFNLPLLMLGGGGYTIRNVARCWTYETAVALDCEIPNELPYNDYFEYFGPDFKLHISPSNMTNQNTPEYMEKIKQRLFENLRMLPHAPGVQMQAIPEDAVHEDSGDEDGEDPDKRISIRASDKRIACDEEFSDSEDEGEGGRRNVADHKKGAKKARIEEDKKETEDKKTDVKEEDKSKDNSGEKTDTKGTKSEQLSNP
# [28] = target: Histone deacetylase 3 (Homo sapiens) (UniProt O15379); test: Inhibition of HDAC3 (unknown origin) at 10 uM using fluorogenic peptide as substrate pre-incubated for 15 mins followed by substrate addition incubated for 30 mins by fluorescence assay; conditions: time 45.0 min
# Histone deacetylase 3 (Homo sapiens), sequence (O15379 whole entry): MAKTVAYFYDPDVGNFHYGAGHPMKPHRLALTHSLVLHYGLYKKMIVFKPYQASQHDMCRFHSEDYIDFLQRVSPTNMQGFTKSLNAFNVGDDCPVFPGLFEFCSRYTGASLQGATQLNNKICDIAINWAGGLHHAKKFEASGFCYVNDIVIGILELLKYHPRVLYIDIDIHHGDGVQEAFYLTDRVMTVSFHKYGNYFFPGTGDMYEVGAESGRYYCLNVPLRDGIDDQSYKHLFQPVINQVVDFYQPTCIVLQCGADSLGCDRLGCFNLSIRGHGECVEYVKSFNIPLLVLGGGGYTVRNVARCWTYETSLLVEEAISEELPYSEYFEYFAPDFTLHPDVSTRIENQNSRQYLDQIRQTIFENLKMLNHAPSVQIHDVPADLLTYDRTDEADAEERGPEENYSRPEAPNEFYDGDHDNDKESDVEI
# [29] = target: T5, Histone deacetylase 8 (Homo sapiens) (UniProt Q9BY41); test: Inhibition of HDAC8 (unknown origin) at 10 uM using fluorogenic peptide as substrate pre-incubated for 15 mins followed by substrate addition incubated for 30 mins by fluorescence assay; conditions: time 45.0 min
# T5 sequence (whole entry): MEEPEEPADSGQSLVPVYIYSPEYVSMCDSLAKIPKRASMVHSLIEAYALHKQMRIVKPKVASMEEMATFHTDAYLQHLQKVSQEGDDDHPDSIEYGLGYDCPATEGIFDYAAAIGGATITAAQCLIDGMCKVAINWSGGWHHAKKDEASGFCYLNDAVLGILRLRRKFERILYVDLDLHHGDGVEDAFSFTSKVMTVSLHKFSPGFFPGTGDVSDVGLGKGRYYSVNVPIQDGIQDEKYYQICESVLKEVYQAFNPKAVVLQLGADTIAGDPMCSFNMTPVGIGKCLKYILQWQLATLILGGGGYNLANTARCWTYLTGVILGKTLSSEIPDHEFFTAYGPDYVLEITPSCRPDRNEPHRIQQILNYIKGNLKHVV
# U-937 [30] = test: Cytotoxicity against human U-937 cells assessed as cell death at 1 uM incubated for 24 hrs by PI staining based FACS analysis relative to control; format: functional
# U-937 [31] = test: Induction of cell cycle arrest in human U-937 assessed as decrease accumulation of cells in S phase at 5 uM incubated for 24 hrs by FACS analysis; format: functional, cell-based
# U-937 [32] = test: Induction of cell cycle arrest in human U-937 assessed as increase accumulation of cells in G2/M phase at 5 uM incubated for 24 hrs by FACS analysis; format: functional, cell-based
# HCT-116 [33] = test: Induction of cell cycle arrest in human HCT-116 assessed as accumulation of cells in G2/M phase at 5 uM incubated for 24 hrs by FACS analysis; format: functional, cell-based
Compound,Activity (HCT-116 [1]),IC50 (Histone deacetylase),Activity (U-937 [2]),Activity (HCT-116 [3]),Activity (U-937 [4]),Activity (U-937 [5]),Activity (U-937 [6]),Activity (HCT-116 [7]),Activity [8],Activity [9],Activity [10],Activity (HCT-116 [11]),Activity (U-937 [12]),Activity [20],also measured
O=C(CCCCCN1C(=O)C[C@@H](c2ccc(Cl)c(Cl)c2)Sc2ccccc21)NO,Active,165.1 nM,~12%,22%,Active,Active,Active,Active,Active,Active,Active,Active,Active,,
O=C(NCC1(c2nc(-c3ccccc3)cs2)CCOCC1)c1cccc(-c2noc(C(F)(F)F)n2)c1,,,,,,,,,,,,,,,inhibition [13]: 99.2%
O=C(CCCCCN1C(=O)CC(c2ccc(Cl)c(Cl)c2)S(=O)(=O)c2ccccc21)NO (racemic),,27.1 nM,,,,Active,,Active,Active,Active,Active,Active,Active,Active,inhibition (Histone deacetylase 1 [14]): 96.9%; inhibition [15]: 99.5%; IC50 [16]: 12.3 nM; IC50 (Histone deacetylase 1 [17]): 88.2 nM; Activity (U-937 [18]): ~6%; Activity [19]: Active; IC50 (U-937 [21]): 13900 nM; IC50 (HCT-116 [22]): 18500 nM; Activity (U-937 [23]): Active; Activity (HCT-116 [24]): Active; Activity (U-937 [25]): Active; Activity (HCT-116 [26]): Active
O=C(CCCCCN1C(=O)CC(c2ccc(Cl)c(Cl)c2)Sc2ccccc21)NO (racemic),Active,229.2 nM,~12%,22%,Active,Active,Active,Active,,Active,Active,Active,Active,Active,
O=C(CCCCCN1C(=O)CC(c2cccc(Br)c2)Sc2ccccc21)NO (racemic),Active,293.3 nM,~12%,22%,Active,Active,Active,Active,,Active,Active,Active,Active,Active,
O=C(CCCCCN1C(=O)CC(c2ccccc2)S(=O)(=O)c2ccccc21)NO (racemic),,38.6 nM,~12%,,Active,Active,Active,~75%,Active,Active,Active,Active,Active,Active,inhibition (Histone deacetylase 1 [14]): 99.1%; inhibition [27]: 100%; inhibition [28]: 99.3%; inhibition [13]: 51.4%; inhibition [15]: 98.8%; inhibition [29]: 87.3%; IC50 [16]: 23.2 nM; IC50 (Histone deacetylase 1 [17]): 115 nM; Activity (U-937 [30]): 12%; Activity [19]: Active
O=C(CCCCCCC(=O)Nc1ccccc1)NO [VORINOSTAT],,,~10%,,,,Active,,,,,,,,Activity (U-937 [31]): Active; Activity (U-937 [32]): Active; Activity (HCT-116 [33]): Active
